Measured values reported in ChEMBL document CHEMBL6083269, “Design, synthesis, in vitro and in vivo trypanosomaticidal efficacy of novel 5-nitroindolylazines” (Eur J Med Chem, 2024).
Active and inactive are the calls of the source. No cut-off for these calls is given here.

Columns and labels:
[1] = Selectivity index, ratio of IC50 for african green monkey Vero cells to IC50 for Leishmania donovani 9515 (MHOM/IN/95/9151) promastigote; format: toxicity, cell-based; settings: read-out: Ratio IC50
[2] = Selectivity index, ratio of CC50 for MDBK to IC50 for Trypanosoma brucei rhodesiense IL1501; format: toxicity, cell-based; settings: cattle, MDBK cells; read-out: Ratio CC50/IC50
[3] = Selectivity index, ratio of CC50 for MDBK to IC50 for Trypanosoma evansi Tansui; format: toxicity, cell-based; settings: cattle, MDBK cells; read-out: Ratio CC50/IC50
[4] = Cytotoxicity against MDBK cells incubated for 72 hrs by CCK8 assay; format: toxicity, cell-based, Bos taurus; settings: cattle; for CC50 at 72 h: MDBK cells
[5] = system: Trypanosoma brucei rhodesiense; experiment: Trypanocidal activity against Trypanosoma brucei rhodesiense IL1501 incubated for 72 hrs by CellTiter-Glo reagent based […] analysis; format: functional, organism-based; settings: IL1501, 72 h
Leishmania donovani [6] = experiment: Antileishmanial activity against Leishmania donovani 9515 (MHOM/IN/95/9151) promastigote incubated for 48 hrs by resazurin dye based plate reader assay; format: functional, organism-based
[7] = Selectivity index, ratio of CC50 for MDBK to IC50 for Trypanosoma congolense IL3000; format: toxicity, cell-based; settings: cattle, MDBK cells; read-out: Ratio CC50/IC50
[8] = system: Trypanosoma brucei brucei; experiment: Trypanocidal activity against Trypanosoma brucei brucei GUTat3.1 incubated for 72 hrs by CellTiter-Glo reagent based […] analysis; format: functional, organism-based; settings: GUTat3.1, 72 h
Trypanosoma evansi = experiment: Trypanocidal activity against Trypanosoma evansi Tansui incubated for 72 hrs by CellTiter-Glo reagent based […] analysis; format: functional, organism-based
[9] = Selectivity index, ratio of CC50 for MDBK to IC50 for Trypanosoma brucei gambiense IL1922; format: toxicity, cell-based; settings: cattle, MDBK cells; read-out: Ratio CC50/IC50
[10] = system: Trypanosoma brucei gambiense; experiment: Trypanocidal activity against Trypanosoma brucei gambiense IL1922 incubated for 72 hrs by CellTiter-Glo reagent based […] analysis; format: functional, organism-based; settings: IL1922, 72 h
Trypanosoma equiperdum = experiment: Trypanocidal activity against Trypanosoma equiperdum IVM-t1 incubated for 72 hrs by CellTiter-Glo reagent based […] analysis; format: functional, organism-based; settings: IVM-t1, 72 h
Leishmania donovani [11] = experiment: Leishmanicidal activity against Leishmania donovani 9515 (MHOM/IN/95/9151) amastigote infected in THP-1 cells incubated for 72 hrs by resazurin dye based plate reader assay; format: functional, organism-based; settings: THP-1, 72 h
[12] = Cytotoxicity against human […]-differentiated THP-1 cells incubated for 72 hrs by resazurin dye based assay; format: toxicity, cell-based
[13] = Cytotoxicity against green monkey Vero cells incubated for 48 hrs by resazurin dye based assay; format: toxicity, cell-based; settings: African green monkey (Chlorocebus sabaeus)
[14] = Selectivity index, ratio of CC50 for MDBK to IC50 for Trypanosoma brucei brucei GUTat3.1; format: toxicity, cell-based; settings: cattle, MDBK cells; read-out: Ratio CC50/IC50
[15] = Selectivity index, ratio of IC50 for human THP-1 cells to IC50 for Leishmania donovani 9515 (MHOM/IN/95/9151) promastigote; format: toxicity, cell-based; settings: read-out: Ratio IC50
Trypanosoma congolense [16] = experiment: Trypanocidal activity against Trypanosoma congolense IL3000 incubated for 72 hrs by CellTiter-Glo reagent based […] analysis; format: functional, organism-based; settings: IL3000, 72 h
[17] = Selectivity index, ratio of CC50 for MDBK to IC50 for Trypanosoma equiperdum IVM-t1; format: toxicity, cell-based; settings: cattle, MDBK cells; read-out: Ratio CC50/IC50
Leishmania donovani [18] = experiment: Antileishmanial activity against Leishmania donovani 9515 (MHOM/IN/95/9151) amastigote infected in THP-1 cells assessed as inhibition of parasite growth incubated for 72 hrs by resazurin dye based plate reader assay; format: functional, organism-based; settings: THP-1, 72 h
Trypanosoma cruzi [19] = experiment: Antitrypanosomal activity against Trypanosoma cruzi Tulahuen C4 strain trypomastigotes assessed as growth inhibition at 20 uM incubated for 48 hrs by resazurin dye based assay; format: functional; set-up: scale not given: the % may be the effect or the level left
Trypanosoma cruzi [20] = experiment: Antitrypanosomal activity against Trypanosoma cruzi Tulahuen C4 strain amastigotes infected in Vero cells incubated for 72 hrs by beta-galactosidase based assay; format: functional, organism-based
[21] = Selectivity index, ratio of IC50 for african green monkey Vero cells to IC50 for Leishmania donovani; format: toxicity, cell-based; settings: read-out: Ratio IC50
[22] = Selectivity index, ratio of IC50 for african green monkey Vero cells to IC50 for static antileishmanial activity against Leishmania donovani 9515 (MHOM/IN/95/9151) amastigote; format: toxicity, cell-based; settings: read-out: Ratio IC50
[23] = Selectivity index, ratio of IC50 for human THP-1 cells to IC50 for static antileishmanial activity against Leishmania donovani 9515 (MHOM/IN/95/9151) amastigote; format: toxicity, cell-based; settings: read-out: Ratio IC50
[24] = Selectivity index, ratio of IC50 for african green monkey Vero cells to IC50 for leishmanicidal activity against Leishmania donovani 9515 (MHOM/IN/95/9151) amastigote; format: toxicity, cell-based; settings: read-out: Ratio IC50
[25] = Selectivity index, ratio of IC50 for human THP-1 cells to IC50 for leishmanicidal activity against Leishmania donovani 9515 (MHOM/IN/95/9151) amastigote; format: toxicity, cell-based; settings: read-out: Ratio IC50
Trypanosoma congolense [26] = experiment: Antitrypanosomal activity against Trypanosoma congolense IL3000 infected in BALB/c mouse assessed as increase in animal survival time at 100 mg/kg, po or 10 mg/kg, ip administered for 7 consecutive days starting from 6 days post infection (reference value: 9 day); format: functional; settings: time 7 day
[27] = Selectivity index, ratio of IC50 for human THP-1 cells to IC50 for Trypanosoma cruzi Tulahuen C4 strain; format: toxicity, cell-based; settings: read-out: Ratio IC50
Leishmania major [28] = experiment: Leishmanicidal activity against Leishmania major NIH-S (MHOM/SN/74/Seidman) amastigote incubated for 48 hrs by resazurin dye based plate reader assay; format: functional, organism-based
[29] = Selectivity index, ratio of IC50 for african green monkey Vero cells to IC50 for Trypanosoma cruzi Tulahuen C4 strain; format: toxicity, cell-based; settings: read-out: Ratio IC50
[30] = Selectivity index, ratio of IC50 for african green monkey Vero cells to IC50 for static antileishmanial activity against Leishmania major NIH-S (MHOM/SN/74/Seidman) amastigote; format: toxicity, cell-based; settings: read-out: Ratio IC50
[31] = Selectivity index, ratio of IC50 for african green monkey Vero cells to IC50 for leishmanicidal activity against Leishmania major NIH-S (MHOM/SN/74/Seidman) amastigote; format: toxicity, cell-based; settings: read-out: Ratio IC50
[32] = Selectivity index, ratio of IC50 for human THP-1 cells to IC50 for static antileishmanial activity against Leishmania major NIH-S (MHOM/SN/74/Seidman) amastigote; format: toxicity, cell-based; settings: read-out: Ratio IC50
Leishmania major [33] = experiment: Antileishmanial activity against Leishmania major NIH-S (MHOM/SN/74/Seidman) amastigote infected in THP-1 cells assessed as inhibition of parasite growth incubated for 72 hrs by resazurin dye based plate reader assay; format: functional, organism-based; settings: THP-1, 72 h
Leishmania major [34] = experiment: Antileishmanial activity against Leishmania major IR-173 (MHO-M/IR/-173) promastigote incubated for 48 hrs by resazurin dye based plate reader assay; format: functional, organism-based
Trypanosoma congolense [35] = experiment: Antitrypanosomal activity against Trypanosoma congolense IL3000 infected in BALB/c mouse assessed as animal survival at 100 mg/kg, po or 10 mg/kg, ip administered for 7 consecutive days starting from 6 days post infection and measured after 13 days post infection; format: functional, organism-based; settings: time 7.0 day
[36] = Selectivity index, ratio of IC50 for human THP-1 cells to IC50 for leishmanicidal activity against Leishmania major NIH-S (MHOM/SN/74/Seidman); format: toxicity, cell-based; settings: read-out: Ratio IC50

Row | Structure (SMILES) | selectivity ratio [1] | selectivity ratio [2] | selectivity ratio [3] | IC50 [5] [µM] | IC50 (Leishmania donovani [6]) [µM] | selectivity ratio [7] | IC50 [8] [µM] | IC50 (Trypanosoma evansi) [µM] | selectivity ratio [9] | IC50 [10] [µM] | IC50 (Trypanosoma equiperdum) [µM] | IC50 (Leishmania donovani [11]) [µM] | IC50 at 72 h [12] [µM] | IC50 at 48 h [13] [µM] | selectivity ratio [14] | selectivity ratio [15] | IC50 (Trypanosoma congolense [16]) [µM] | selectivity ratio [17] | IC50 (Leishmania donovani [18]) [µM] | Activity (Trypanosoma cruzi [19]) [%] | also measured
1 | C#CCn1cc(/C=N\N=C\C(C)=Cc2ccccc2)c2cc([N+](=O)[O-])ccc21 | 1 | 0.93 | 0.41 | 9.86 | 7.88 | 0.94 | 26.7 | 22.7 | 0.34 | 27.2 | 29 | > 10 | > 100 | 9.59 | 0.34 | 13 | > 9.79 | 0.32 | > 10 |  | CC50 ([4]; mdbk, 72 h): 226 µM
2 | O=C(Cn1ccnc1[N+](=O)[O-])NCc1ccccc1 [BENZNIDAZOLE] |  |  |  |  |  |  |  |  |  |  |  |  |  |  |  |  |  |  |  | 100 | IC50 (Trypanosoma cruzi [20]): 2.7 µM
3 | O=[N+]([O-])c1ccc(/C=N/N=C/c2ccc(OCc3ccccc3)cc2)o1 |  |  |  |  |  |  |  |  |  |  |  |  |  |  |  |  |  |  |  |  | selectivity ratio [21]: 400
4 | C#CCn1cc(/C=N\N=C\c2cccs2)c2cc([N+](=O)[O-])ccc21 | 2 | 18.3 | > 16.1 | 16.3 | 7.02 | > 75.4 | 21.4 | 18.5 | 20.2 | 14.7 | 18.4 | 0.67 | 16.6 | 10.8 | > 13.9 | 2 | 3.94 | > 16.2 | 0.89 |  | selectivity ratio [22]: 12; CC50 at 72 h [4]: > 297 µM; selectivity ratio [23]: 16; selectivity ratio [24]: 16; selectivity ratio [25]: 25
5 | C#CCn1cc(/C=N\N=C\c2ccc([N+](=O)[O-])s2)c2cc([N+](=O)[O-])ccc21 | 26 | > 753 | > 864 | 0.35 | 1.95 | > 2950 | 0.33 | 0.3 | > 1070 | 0.25 | 0.34 | 3.51 | > 100 | 51.1 | > 790 | 51 | 0.09 | > 780 | 2.34 | 59 | selectivity ratio [22]: 22; Survival (Trypanosoma congolense [26]): 10.5 days; selectivity ratio [27]: 121; IC50 (Leishmania major [28]): 1.74 µM; selectivity ratio [29]: 62; CC50 at 72 h [4]: > 263 µM; selectivity ratio [30]: 142; selectivity ratio [31]: 25; selectivity ratio [32]: 278; IC50 (Leishmania major [33]): 0.36 µM; IC50 (Trypanosoma cruzi [20]): 0.82 µM; IC50 (Leishmania major [34]): > 10 µM; Activity (Trypanosoma congolense [35]): inactive; selectivity ratio [23]: 42; selectivity ratio [36]: 58; selectivity ratio [24]: 15; selectivity ratio [25]: > 28
